Patent US8679514B2, “Fungicidal mixtures based on azolopyrimidinylamines” (BASF SE, priority 2005, dated 2014)
Where two headings read alike, the source gives them in different places.

Assays:
Plasmopara viticola [1] = assay: whole plant or invertebrate; format: in vivo; details: read-out: Observed activity (%)
Plasmopara viticola [2] = assay: whole plant or invertebrate; format: in vivo; details: read-out: Observed activity (%); remark: listed apart in the source
Phytophthora infestans [3] = assay: microbe, parasite or virus in culture; format: cell-based; details: for inhibition at 0.016 µg/mL / inhibition at 0.25 µg/mL / inhibition at 1 µg/mL / inhibition at […]: Phytophthora infestans, read-out: Observed activity (%)
Botrytis cinerea = assay: Activity against the gray mold pathogen Botrytis cinerea in the microtiter test; format: cell-based; details: Botrytis cinerea, single active compound, read-out: Observed activity (%); for inhibition at […]: Conc. 0.063 mg/l; for inhibition at 0.25 µg/mL: Conc. 0.25 mg/l; for inhibition at 16 µg/mL: Conc. 16 mg/l
Pyricularia oryzae = assay: microbe, parasite or virus in culture; format: cell-based; details: Pyricularia oryzae, read-out: Observed activity (%)
Phytophthora infestans [4] = assay: whole plant or invertebrate; format: in vivo; details: for Observed activity (%): in vivo
Phytophthora infestans [5] = assay: whole plant or invertebrate; format: in vivo; details: 144 h, read-out: Efficacy in % of the untreated control
Septoria tritici = assay: Activity against the speckled leaf blotch pathogen Septoria tritici in the microtiter test; format: cell-based; details: single active compound

Compound: CC1(c2ccc(Oc3ccccc3)cc2)OC(=O)N(Nc2ccccc2)C1=O (racemic) [famoxadone, (RS)-3-anilino-5-methyl-5-(4-phenoxyphenyl)-1,3-oxazolidine-2,4-dione]
- inhibition at 4 µg/mL (Plasmopara viticola [1]): 0%

Compound: CCCCCCCCc1c(CC)nc2ncnn2c1N [Compound I-110, 5-ethyl-6-octyl-[1,2,4]triazolo[1,5-a]pyrimidin-7-ylamine]
- inhibition at 0.25 µg/mL (Plasmopara viticola [1]): 0%
- inhibition at 4 µg/mL (Plasmopara viticola [1]): 0%
- inhibition at 4 µg/mL (Plasmopara viticola [2]): 0%
- inhibition at 0.016 µg/mL (Phytophthora infestans [3]): 1%
- inhibition at 0.25 µg/mL (Phytophthora infestans [3]): 5%
- inhibition at 1 µg/mL (Phytophthora infestans [3]): 59%
- inhibition at […] (Phytophthora infestans [3]): 3%
- inhibition at […] (Botrytis cinerea): 8%
- inhibition at 0.25 µg/mL (Botrytis cinerea): 18%
- inhibition at 16 µg/mL (Pyricularia oryzae): 8%
- inhibition at 4 µg/mL (Phytophthora infestans [4]; Phytophthora infestans, read-out: Observed activity (%)): 11%

Compound: CCCCCCCCc1c(CC)nc2nc(N)nn2c1N [Compound I-120, 5-ethyl-6-octyl-[1,2,4]triazolo[1,5-a]pyrimidine-2,7-diamine]
- inhibition at 0.016 µg/mL (Phytophthora infestans [3]): 0%
- inhibition at 0.25 µg/mL (Phytophthora infestans [3]): 6%
- inhibition at […] (Phytophthora infestans [3]): 2%
- inhibition at […] (Botrytis cinerea): 0%
- inhibition at 1 µg/mL (Botrytis cinerea; Conc. 1 mg/l): 9%
- inhibition at 16 µg/mL (Botrytis cinerea): 15%
- pest or weed control at 16 ppm (Phytophthora infestans [5]): 33%
- inhibition at […] (Septoria tritici; Zymoseptoria tritici, 0.063 mg/l, read-out: Observed activity (%)): 0%
- inhibition at 16 µg/mL (Pyricularia oryzae): 25%

Compound: CCCCCCCCc1c(CCC)nc2ncnn2c1N [Compound I-180, 6-octyl-5-propyl-[1,2,4]triazolo[1,5-a]pyrimidin-7-ylamine]
- inhibition at 0.016 µg/mL (Phytophthora infestans [3]): 0%
- inhibition at 0.25 µg/mL (Phytophthora infestans [3]): 8%
- inhibition at 1 µg/mL (Phytophthora infestans [3]): 17%
- inhibition at […] (Phytophthora infestans [3]): 2%
- inhibition at 0.016 µg/mL (Botrytis cinerea; Conc. 0.016 mg/l): 3%
- inhibition at 0.25 µg/mL (Botrytis cinerea): 13%
- pest or weed control at 16 ppm (Phytophthora infestans [5]): 0%
- pest or weed control at 63 ppm (Phytophthora infestans [5]): 33%
- inhibition at 1 µg/mL (Pyricularia oryzae): 15%

Compound: CCCCCCCCc1c(COC)nc2ncnn2c1N [Compound I-245, 5-methoxymethyl-6-octyl-[1,2,4]triazolo[1,5-a]pyrimidin-7-ylamine]
- inhibition at 0.016 µg/mL (Phytophthora infestans [3]): 0%
- inhibition at 0.25 µg/mL (Phytophthora infestans [3]): 12%
- inhibition at […] (Phytophthora infestans [3]): 0%
- inhibition at 0.25 µg/mL (Botrytis cinerea): 0%
- pest or weed control at 4 ppm (Phytophthora infestans [5]): 0%
- inhibition at 0.25 µg/mL (Pyricularia oryzae): 10%
- inhibition at 16 µg/mL (Pyricularia oryzae): 23%

Compound: [Cu+2].[OH-].[OH-] [Cu(OH)2, copper hydroxide, reference compound]
- Observed activity (%) (Phytophthora infestans [3]): 2%
- Observed activity (%) (Phytophthora infestans [4]): 11%

Compound: COC(=O)NCc1cc(C(C)=NOCc2cccc(C)c2)ccc1Cl [[B-6], methyl (2-chloro-5-[1-(3-methylbenzyloxyimino)-ethyl]benzyl)carbamate, reference compound]
- inhibition at 16 µg/mL (Plasmopara viticola [1]): 0%
- inhibition at 0.25 µg/mL (Phytophthora infestans [3]): 10%
- inhibition at 16 µg/mL (Botrytis cinerea): 53%

Compound: COC(=O)CC(NC(=O)C(NC(=O)OC(C)C)C(C)C)c1ccc(Cl)cc1 (stereo not shown) [[E-7], methyl 3-(4-chlorophenyl)-3-(2-isopropoxycarbonylamino-3-methyl-butyrylamino)propanoate]
- inhibition at 0.25 µg/mL (Plasmopara viticola [1]): 0%

Compound: Cc1c(Br)c2ccc(F)cc2n1S(=O)(=O)c1ncn(S(=O)(=O)N(C)C)n1 [amidosulbrom, N,N-dimethyl-3-(3-bromo-6-fluoro-2-methylindole-1-sulfonyl)-[1,2,4]triazole-1-sulfonamide]
- inhibition at 4 µg/mL (Plasmopara viticola [1]): 22%

Compound: CCNC(=O)NC(=O)C(C#N)=NOC [cymoxanil, 1-(2-cyano-2-methoxyiminoacetyl)-3-ethylurea, reference compound]
- inhibition at 16 µg/mL (Plasmopara viticola [2]): 33%
- inhibition at 16 µg/mL (Pyricularia oryzae): 12%

Compound: COc1ccc(C(=CC(=O)N2CCOCC2)c2ccc(Cl)cc2)cc1OC [dimethomorph, 3-(4-chlorophenyl)-3-(3,4-dimethoxyphenyl)-1-morpholin-4-ylpropenone, reference compound]
- inhibition at 16 µg/mL (Plasmopara viticola [2]): 67%
- pest or weed control at 4 ppm (Phytophthora infestans [5]): 33%

Compound: N#Cc1sc2c(=O)c3ccccc3c(=O)c=2sc1C#N [dithianon, 5,10-dioxo-5,10-dihydronaphtho[2,3-b][1,4]dithiin-2,3-dicarbonitrile]
- inhibition at 16 µg/mL (Plasmopara viticola [2]): 0%

Compound: CCNc1nc(CC)c(C(=O)NC(C#N)c2cccs2)s1 (stereo not shown) [ethaboxam, N-(cyano-2-thienylmethyl)-4-ethyl-2-(ethylamino)-5-thiazolcarboxamide]
- inhibition at 0.25 µg/mL (Plasmopara viticola [1]): 33%

Compound: Cc1ccc(C(C)NC(=O)[C@@H](NC(=O)OC(C)C)C(C)C)cc1 (stereo partly drawn) [iprovalicarb, isopropyl [(1S)-2-methyl-1-(1-p-tolylethylcarbamoyl)propyl]carbamate]
- inhibition at 4 µg/mL (Plasmopara viticola [1]): 0%

Compound: CCC(=O)C1=C([O-])CC(C(=O)[O-])CC1=O.[Ca+2] (stereo not shown) [prohexadione-Ca, reference compound]
- Observed activity (%) (Septoria tritici; 0.25 mg/l): 5%

Compound: manganese ethylenebis(dithiocarbanate) zinc complex [mancozeb]
- Observed activity (%) (Phytophthora infestans [4]): 11%

Compound: phosphorous acid disodium salt [phosphorous acid disodium salt (Na2HPO3), reference compound]
- Observed activity (%) (Phytophthora infestans [3]): 6%
- Observed activity (%) (Phytophthora infestans [4]): 33%
